The values that follow come from US5455228A, “Peptidase resistant thrombin receptor peptide ligand” (The Research Foundation of State University of New York, priority 1993, dated 1995).

Data set [1] deals with T1, plasma aminopeptidase M (Homo sapiens, UniProt P15144).
T1 construct: from tissue; host or cells: human citrated platelet-poor plasma
In words: Peptide digestion during incubation with platelet-poor plasma, HPLC. The class given is in vitro ADME. As to the method:
(§1) Peptide Digestion Studies. For T-11 amino acids 1 to 11 of SEQ ID NO:1 and (D-Ser)T-11 SEQ ID NO:11 digestions, 0.11 volume of 20 mM peptide in 0.15M NaCl, 0.01 Tris/HCl, pH 7.4, was added to citrated platelet-poor plasma to achieve a final concentration of 2 mM. Samples were incubated for 2 hours at 37° C. and then the plasma proteins were precipitated with 9-10% trichloroacetic acid at 4° C. for at least 30 min. After centrifugation at 12000 g at 22° C. for 3 min., the supernatant was analyzed to determine peptide cleavage by reverse-phase HPLC (C8; Applied Biosystems 300 RP Aquapore; 220×4.6-mm column); elution was with 0.1% trifluoroacetic acid with a 0-60% acetonitrile gradient.
(§2) To determine the amino acid sequence of the digestion products of T-11 amino acids 1 to 11 of SEQ ID NO:1 and (D-Ser)T-11 SEQ ID NO:11 and to assess their ability to aggregate platelets, the peptide (2 mM) was incubated with citrated PPP for 2 hours at 37° C., plasma proteins were precipitated with trichloroacetic acid, and the supernatant after centrifugation was both analyzed and fractionated on the analytical reverse-phase column. Peak fractions were dried in a vacuum centrifuge (Speed-Vac, Savant, Farmingdale, N.Y.) and dissolved in either buffer (0.15M NaCl and 0.01 M Tris/HCl, pH 7.4) for aggregation studies or 0.1% trifluoroacetic acid for amino acid analysis. Quantitative amino acid analysis of the peptides was performed with commercial reagents and equipment (Pico-Tag workstation and C-18 Pico-Tag column; Waters-Millipore, Bedford, Mass.). The amino acid sequence could then be inferred from the amino acid content of each peak.
(§3) For the Ser-Phe-Leu-Leu-Arg-Asn (SFLLRN) amino acids 1 to 6 of SEQ ID NO:1 and (iso-Ser)-Phe-Leu-Leu-Arg-Asn ((iso-S))FLLRN SEQ ID NO:7 studies, 2 mM peptide in buffer (0.15 M NaCl, 0.01 M Tris/HCl, pH 7.4) was mixed with an equal volume of citrated platelet-poor plasma (1:1) and separately with an equal volume of buffer and incubated at 37° C for variable periods of time. Aliquots were removed at 15, 30, 45, 60 and 120 minutes and analyzed for both the ability to aggregate platelets and peptide cleavage.
(§4) For peptide digestion studies for SFLLRN amino acids 1 to 6 of SEQ ID NO:1 and (iso-S)FLLRN SEQ ID NO:7, samples were removed at various times and analyzed for peptide digestion by HPLC after precipitating the plasma proteins with trichloroacetic acid.

Data set [2] has as its target T1, plasma aminopeptidase M. In words: Loss of peptide platelet aggregating activity during plasma incubation. The class given is in vitro ADME. The settings on record: for aggregating activity after plasma incubation: 125 μM peptide; for platelet aggregating activity when incubated in plasma: 2 mM peptide mixed 1:1 with platelet-poor plasma, up to 2 hours. As to the method:
(§5) Platelet Aggregation. Platelet Rich Plasma (hereinafter "PRP") was obtained from human blood anticoagulated with sodium citrate (0.01 volume of 40% trisodium citrate) or acid-citrate-dextrose (hereinafter "ACD") solution A (ACD-A; 8.5 mL of blood: 1.5 mL of ACD-A) by centrifugation at 700 g for 3.5 min. at 22° C. Platelet-poor plasma (hereinafter "PPP") was obtained by centrifuging the PRP at 2000g for 8 min. at 22° C. The pH of the citrated PRP after preparation was about 7.7 whereas the pH of the ACD-A PRP was about 7.0. The pH of the PRP was adjusted, when necessary with 1M NaOH or 1M HCl and maintained at about 7.70. Platelet aggregation was performed in a dual-channel aggregometer (Chronolog, Hayertown, Pa.) using matched stir bars.
[…] Aliquots were removed at 15, 30, 45, 60 and 120 minutes and analyzed for both the ability to aggregate platelets and peptide cleavage.

For data set [3], the target named is T2, thrombin receptor on platelets (Homo sapiens, UniProt P25116).
T2 construct: Citrated platelet-rich plasma (PRP; 307,000 platelets/μl, pH 7.0; 0.45 ml) was stirred in a cuvette at 37° C; endogenous in cells; host or cells: human platelets in citrated platelet-rich plasma
T2 sequence (P25116 22-425): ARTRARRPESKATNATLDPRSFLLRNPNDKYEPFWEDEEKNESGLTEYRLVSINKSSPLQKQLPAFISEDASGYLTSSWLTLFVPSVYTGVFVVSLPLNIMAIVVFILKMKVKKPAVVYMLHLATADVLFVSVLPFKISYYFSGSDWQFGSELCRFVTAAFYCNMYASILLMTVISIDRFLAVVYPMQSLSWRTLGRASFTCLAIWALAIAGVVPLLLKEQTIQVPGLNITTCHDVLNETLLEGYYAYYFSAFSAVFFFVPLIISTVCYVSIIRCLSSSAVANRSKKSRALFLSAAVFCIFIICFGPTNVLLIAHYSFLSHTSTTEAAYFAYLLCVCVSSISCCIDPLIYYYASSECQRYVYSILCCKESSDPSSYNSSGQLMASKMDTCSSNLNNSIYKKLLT
The experiment in a line: Dose response of peptide-induced platelet aggregation in platelet-rich plasma. The class given is cell-based. As to the method: as §5
Dose Response of Peptide-Induced Aggregation. Citrated platelet-rich plasma (PRP; 307,000 platelets/μl, pH 7.0; 0.45 ml) was stirred in a cuvette at 37° C. and then […] of Ser-Phe-Leu-Leu-Arg-Asn-Pro-Asn-Asp-Lys-Tyr (T-11) amino acids 1 to 11 of SEQ ID NO:1, (D-Ser)-Phe-Leu-Leu-Arg-Asn-Pro-Asn-Asp-Lys-Tyr ((DS)T-11) SEQ ID NO:11, Ser-Phe-Leu-Leu-Arg-Asn amino acids 1 to 6 of SEQ ID NO:1 or (iso-Ser)-Phe-Leu-Leu-Arg-Asn SEQ ID NO:7 peptide was added to achieve the final concentration as follows: Ser-Phe-Leu-Leu-Arg-Asn-Pro-Asn-Asp-Lys-Tyr amino acids 1 to 11 of SEQ ID NO:1 was added to a maximum concentration of 2.9 μM; (D-Ser)-Phe-Leu-Leu-Arg-Asn-Pro-Asn-Asp-Lys-Tyr SEQ IS NO:11 was added to a maximum concentration of 940 μM; Ser-Phe-Leu-Leu-Arg-Asn amino acids 1 to 6 of SEQ ID NO:1 was added to a maximum concentration of 1.7 μM; (iso-Ser)-Phe-Leu-Leu-Arg-Asn SEQ ID NO:7 was added up to a maximum concentration of 4.9 μM.

Data set [4] relates to T3, plasma aminopeptidase M.
T3 construct: from tissue; host or cells: human citrated platelet-poor plasma
In words: Peptide digestion during incubation with platelet-poor plasma, HPLC. The class given is in vitro ADME, human. The following applies: human; for remaining at 2 h, 1 mM: 120 min; for metabolised at 2 h, 1 mM: incubated with plasma at 37° C., about two hours, read-out: peptide cleavage. As to the method: as §1, §2, §3, §4

Another data set addresses aminopeptidase M (Homo sapiens, UniProt P15144). The settings on record: Coller et al. 1992; not with thrombin; cited from earlier work.
In data set [5] the target is T1, plasma aminopeptidase M. The settings on record: previously demonstrated, Coller et al. 1992; cited from earlier work.
The test system of another data set is gel-filtered platelets. The settings on record: Vu et al. 1991; cited from earlier work.
Setting [6] is: 1 mM final, 50% platelet-poor plasma, 37° C., 2 hours.
Where [7] appears, read: 50% citrated platelet-poor plasma, 1 mM final, 50% platelet-poor plasma, 37° C., read-out: percentage remaining intact.

Numbered stars: 1 amine (or outer) side, 2 acyl side, 3 side chain; on linkers, the order of the positions; unused ones are H or OH. Square brackets hold non-standard residues; d marks the D form. Ends that are not written are not given here. Peptide text beside a SMILES is read from it. ξ: configuration not given here. ξIsoserine = O=C(C(O)CN[*:1])[*:2]

T1 sequence (P15144 whole entry): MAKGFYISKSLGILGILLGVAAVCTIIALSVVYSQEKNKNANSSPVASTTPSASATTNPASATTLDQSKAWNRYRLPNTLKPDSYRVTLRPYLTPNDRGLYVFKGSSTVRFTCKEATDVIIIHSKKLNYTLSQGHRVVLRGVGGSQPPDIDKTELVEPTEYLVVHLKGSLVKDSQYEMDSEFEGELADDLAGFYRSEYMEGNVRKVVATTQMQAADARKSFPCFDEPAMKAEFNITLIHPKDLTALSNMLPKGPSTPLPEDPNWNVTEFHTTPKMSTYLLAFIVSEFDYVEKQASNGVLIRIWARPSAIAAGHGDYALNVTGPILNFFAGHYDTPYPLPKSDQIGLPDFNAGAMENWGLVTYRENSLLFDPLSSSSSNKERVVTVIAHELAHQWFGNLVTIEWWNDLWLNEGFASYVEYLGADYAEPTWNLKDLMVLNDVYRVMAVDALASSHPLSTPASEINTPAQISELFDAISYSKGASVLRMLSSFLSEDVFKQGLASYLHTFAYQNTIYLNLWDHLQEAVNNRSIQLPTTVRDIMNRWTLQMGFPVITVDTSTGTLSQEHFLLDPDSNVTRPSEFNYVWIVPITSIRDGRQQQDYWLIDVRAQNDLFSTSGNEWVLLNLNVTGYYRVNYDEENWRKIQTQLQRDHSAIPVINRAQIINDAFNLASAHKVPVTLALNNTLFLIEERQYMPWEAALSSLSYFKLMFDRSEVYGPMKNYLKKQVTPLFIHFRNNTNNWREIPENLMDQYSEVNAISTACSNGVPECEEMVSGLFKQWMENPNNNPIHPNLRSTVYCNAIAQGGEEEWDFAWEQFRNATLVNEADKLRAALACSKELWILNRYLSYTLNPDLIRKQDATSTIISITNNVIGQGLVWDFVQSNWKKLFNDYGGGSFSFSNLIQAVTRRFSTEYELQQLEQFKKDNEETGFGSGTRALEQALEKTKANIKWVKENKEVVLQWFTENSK
Sequence of aminopeptidase M (P15144 whole entry, species assumed): as the sequence (P15144 whole entry) above

With `CC(C)C[C@H](NC(=O)[C@H](Cc1ccccc1)NC(=O)[C@H](N)CO)C(=O)N[C@@H](CC(C)C)C(=O)N[C@@H](CCCNC(=N)N)C(=O)N[C@@H](CC(N)=O)C(=O)N1CCC[C@H]1C(=O)N[C@@H](CC(N)=O)C(=O)N[C@@H](CC(=O)O)C(=O)N[C@@H](CCCCN)C(=O)N[C@@H](Cc1ccc(O)cc1)C(N)=O` [(DS)T-11, (D-Ser)-Phe-Leu-Leu-Arg-Asn-Pro-Asn-Asp-Lys-Tyr] (H-[dS]FLLRNPNDKY-NH2), the “peptide cleavage (in words)” value on plasma aminopeptidase M [1] (2 mM peptide, platelet-poor plasma, 37° C., 2 hours) was “did not undergo any identifiable cleavage”. The “aggregating activity retained after plasma incubation” value at plasma aminopeptidase M [2] (incubated with plasma for 1 hour) is reported as “retained more than half its aggregating activity”.
As a reminder, the fraction remaining is the share of the starting amount still present when the sample was taken. Regarding `CC(C)C[C@H](NC(=O)[C@H](Cc1ccccc1)NC(=O)C(O)CN)C(=O)N[C@@H](CC(C)C)C(=O)N[C@@H](CCCNC(=N)N)C(=O)N[C@@H](CC(N)=O)C(N)=O` (stereo partly drawn) [(iso-S)FLLRN, (iso-Ser)-Phe-Leu-Leu-Arg-Asn-NH2] (ξIsoserine-FLLRN-NH2), the “platelet activating activity relative to SFLLRN” value in data set [3] (citrated PRP) is given as 15-20%. Moreover, in data set [3] (citrated PRP), the “platelet aggregating activity (in words)” value is listed as “substantially active”. Besides, the EC50 in data set [3] (citrated PRP, 37° C., read-out: concentration to achieve half-maximal aggregation) was roughly 4 µM. Moreover, the “slope of platelet disaggregation phase” value in data set [3] (peptide at 3.7 μM, dose giving equivalent peak aggregation response) came out at 4 U/min. Moreover, the “extent of digestion (in words)” value at plasma aminopeptidase M [1] (setting [6]) was “minimal digestion”. Moreover, the “peptide remaining intact (in words)” value on plasma aminopeptidase M [1] (1 mM final, 50% platelet-poor plasma, 37° C., first 60 min) is “Virtually all”. Moreover, the “peptide cleavage (in words)” value at plasma aminopeptidase M [1] (incubated with plasma at 37° C., 45 minutes) is reported as “did not undergo identifiable cleavage”. Besides, the share remaining at 2 h, 1 mM in the data set on plasma aminopeptidase M [4] (setting [7]) was roughly 83%. Also, the metabolised at 2 h, 1 mM in the data set with plasma aminopeptidase M [4] (citrated platelet-poor plasma) is roughly 17%. In addition, the figures for the “aggregating activity after plasma incubation” value at plasma aminopeptidase M [2] (45 min), at plasma aminopeptidase M [2] (1 hour) and on plasma aminopeptidase M [2] (2 hours) were “retained its full aggregating activity”, “some decrease in activity” and “some aggregating activity remained”, respectively. The “platelet aggregating activity when incubated in plasma” value on plasma aminopeptidase M [2] (37° C.) is reported as “lost little if any activity”. Further, the “peptide activity after incubation with buffer rather than plasma” value on plasma aminopeptidase M [2] (buffer, 37° C., 2 hours) was “no decrease in peptide activity”. In addition, the “platelet aggregating activity after plasma incubation” value at plasma aminopeptidase M [2] (plasma at 37° C., at least two hours) is reported as “remained unchanged”.
`CC(C)C[C@H](NC(=O)[C@H](CC(C)C)NC(=O)[C@H](Cc1ccccc1)NC(=O)[C@@H](N)CO)C(=O)N[C@@H](CCCN=C(N)N)C(=O)N[C@@H](CC(N)=O)C(N)=O` [SFLLRN]: the “time to detectable cleavage” value on plasma aminopeptidase M [1] (1 mM final, 50% platelet-poor plasma, 37° C.) is reported as no more than 10 min. Further, the “extent of digestion (in words)” value on plasma aminopeptidase M [1] (setting [6]) is recorded as “nearly complete digestion”. Besides, in the data set with plasma aminopeptidase M [4] (50% citrated platelet-poor plasma, 1 mM final, 50% platelet-poor plasma, 37° C., 15 min, read-out: peptide no longer intact), the metabolised at 0.25 h, 1 mM turned out to be 35%. The amount remaining at 0.5 h, 1 mM in the data set on plasma aminopeptidase M [4] (50% citrated platelet-poor plasma, 1 mM final, 50% platelet-poor plasma, 37° C., 30 min, read-out: percentage remaining intact) was found to be 49%. The share remaining at 0.75 h, 1 mM in the data set on plasma aminopeptidase M [4] (50% citrated platelet-poor plasma, 1 mM final, 50% platelet-poor plasma, 37° C., 45 min, read-out: percentage remaining intact) amounted to 23%. The amount remaining at 1 h, 1 mM in the data set with plasma aminopeptidase M [4] (50% citrated platelet-poor plasma, 1 mM final, 50% platelet-poor plasma, 37° C., 60 min, read-out: percentage remaining intact) came to 16%. Moreover, the share remaining at 2 h, 1 mM in the data set with plasma aminopeptidase M [4] (setting [7]) was 4%. Further, in the data set with plasma aminopeptidase M [4] (citrated platelet-poor plasma), the metabolised at 2 h, 1 mM was 96%. The “time to loss of all aggregating activity” value on plasma aminopeptidase M [2] (125 μM peptide incubated with plasma) is listed as no more than 18 min. The “platelet aggregating activity when incubated in plasma” value on plasma aminopeptidase M [2] (37° C.) is recorded as “rapidly lost platelet aggregating activity”. Besides, the “time to decrease of platelet aggregating activity” value on plasma aminopeptidase M [2] (incubated with plasma at 37° C.) was no more than 15 min. The “platelet aggregating activity after plasma incubation” value at plasma aminopeptidase M [2] (plasma at 37° C., 60 minutes) is “nearly lost”.
Turning to `CC(C)C[C@@H](N)[C@H](O)C(=O)N[C@H](C(=O)N[C@H](C(=O)N[C@@H](CC(=O)O)C(=O)O)C(C)C)C(C)C` [amastatin], the “effect on aggregation induced by T-11” value at aminopeptidase M was “enhanced aggregation induced by T-11”.
In the case of “SFLLRNPNDKY-NH2 [T-11, Ser-Phe-Leu-Leu-Arg-Asn-Pro-Asn-Asp-Lys-Tyr]”, at plasma aminopeptidase M [5], the “aggregating activity when incubated in plasma” value is “lost aggregating activity”. Besides, the fraction remaining at 2 h, 2 mM with plasma aminopeptidase M [4] (citrated platelet-poor plasma, 2 mM peptide, platelet-poor plasma, 37° C., 2 hours, read-out: peptide remaining intact) was 34%. On plasma aminopeptidase M [2] (incubated with plasma), the “time to loss of all aggregating activity” value is no more than 60 min. For the same compound, on plasma aminopeptidase M [2] (plasma at 37° C.), the “platelet aggregating ability after preincubation in plasma” value is recorded as “progressive loss of platelet aggregating ability”. For the same compound, the “incubation time sufficient to produce significant inhibition of aggregating ability” value on plasma aminopeptidase M [2] (preincubation in plasma at 37° C.) was no more than 10 min.
Turning to “SFLLRNPNDKYEPF [T-14, 14 amino acid peptide mimicking the new amino terminus of the cleaved thrombin receptor]”, the “aggregation of gel-filtered platelets” value with gel-filtered platelets is reported as “able to aggregate gel-filtered platelets directly”. In addition, the “aggregating activity when incubated in plasma” value with plasma aminopeptidase M [5] is listed as “lost aggregating activity”.
